The values that follow come from patent US8450245B2, “Heterocyclic alkanol derivatives” (Bayer Intellectual Property GmbH, priority 2010, dated 2013).

Data set [1] can be described thus: logP by HPLC on reversed-phase columns (C 18), EEC Directive 79/831 Annex V.A8. In kind it is physicochemical. The following applies: reversed-phase HPLC column (C 18); method [a]: LC-MS, acidic range, pH 2.7, 0.1% aqueous formic acid and acetonitrile, linear gradient 10% to 95% acetonitrile. The protocol: The logP values were measured in accordance with EEC Directive 79/831 Annex V.A8 by HPLC (High Performance Liquid Chromatography) using reversed-phase columns (C 18) by the following methods: [a] The LC-MS determination in the acidic range is effected at pH 2.7 with 0.1% aqueous formic acid and acetonitile (contains 0.1% formic acid) as eluents; linear gradient from 10% acetonitrile to 95% acetonitrile.

Data set [2] relates to Alternaria solani. Nature of the data set: Alternaria test (tomato)/protective. The data set is classed as in vivo. The following applies: young tomato plants sprayed at 500 ppm, inoculated one day after treatment, evaluation 7 days after inoculation; 100% = no infection. Here is the method:
Solvent: 49 parts by weight of N,N-dimethylformamide Emulsifier: 1 part by weight of alkylaryl polyglycol ether To produce an appropriate active ingredient formulation, 1 part by weight of active ingredient is mixed with the specified amounts of solvent and emulsifier, and the concentrate is diluted with water to the desired concentration. To test for protective activity, young tomato plants are sprayed with the active ingredient formulation at the stated application rate. One day after the treatment, the plants are inoculated with a spore suspension of Alternaria solani and are then left at 100% relative humidity and 22° C. for 24 h. The plants are then left at 96% relative air humidity and a temperature of 20° C. Evaluation follows 7 days after the inoculation. 0% means an efficacy which corresponds to that of the control, whereas an efficacy of 100% means that no infection is observed. In this test, the following inventive compounds, at an active ingredient concentration of 500 ppm, show an efficacy of 70% or more.

For data set [3], the system named is Sphaerotheca fisliginea. Nature of the data set: Sphaerotheca test (cucumber)/protective. The data set is classed as in vivo. Particulars: young cucumber plants sprayed at 500 ppm, inoculated one day after treatment, evaluation 7 days after inoculation; 100% = no infection. The protocol:
Solvent: 49 parts by weight of N,N-dimethylformamide
Emulsifier: 1 part by weight of alkylaryl polyglycol ether
To produce an appropriate active ingredient formulation, 1 part by weight of active ingredient is mixed with the specified amounts of solvent and emulsifier, and the concentrate is diluted with water to the desired concentration. To test for protective activity, young cucumber plants are sprayed with the formulation of active ingredient at the stated application rate. One day after the treatment, the plants are inoculated with a spore suspension of Sphaerotheca fisliginea. The plants are then placed in a greenhouse at 70% relative air humidity and a temperature of 23° C. Evaluation follows 7 days after the inoculation. 0% means an efficacy which corresponds to that of the control, whereas an efficacy of 100% means that no infection is observed. In this test, the following inventive compounds, at an active ingredient concentration of 500 ppm, show an efficacy of 70% or more.

For orientation: chromatographic logP means a lipophilicity value derived from retention on a column. A lower chromatographic logP goes with lower lipophilicity.

Regarding `CC(C)(C)C(O)(COc1ccc(I)c(F)c1F)c1cncs1` (stereo not drawn) [Compound 1], the chromatographic logP in data set [1] is 3.76. Also, the “Efficacy (%)” value in data set [2] is on record as 100%; in data set [3] it was 94%.
